Where “and” joins values, the source holds several entries; their conditions need not be identical. Equal entries are not always repeated. Where two headings read alike, the source gives them in different places.
How the values were obtained:
[1] = test system: male mice fed with low-calcium diet; settings: values shown in JP 2000-204071 A (Patent Literature 1); cited from earlier work
Cathepsin K [2] = molecular target: T1, Cathepsin K (Oryctolagus cuniculus, UniProt P43236); test: Measurement of cathepsin K inhibitory activity (fluorescent substrate Z-Gly-Pro-Arg-MCA); settings: for CYP/CatK: ratio of IC50 for CYP3A4 inhibitory activity (MBI) to IC50 for cathepsin K inhibitory activity
T1 sequence (P43236 115-329): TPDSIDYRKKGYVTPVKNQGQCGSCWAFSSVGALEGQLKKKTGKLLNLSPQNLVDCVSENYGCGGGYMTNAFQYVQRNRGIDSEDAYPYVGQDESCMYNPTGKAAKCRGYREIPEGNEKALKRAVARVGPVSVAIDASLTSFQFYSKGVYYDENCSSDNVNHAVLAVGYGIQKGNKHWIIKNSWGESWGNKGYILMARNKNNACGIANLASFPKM
Method: (§1) Specifically, the decomposition of 20 μM Z-Gly-Pro-Arg-MCA by cathepsin K was measured in 100 mM potassium sodium phosphate, 1 mM EDTA, 8 mM Cysteine, pH 6.0. The reaction was performed at 37° C. for 30 minutes and then quenched by the addition of 2×10^−5 M of calpeptin. After the reaction was quenched, the intensity of fluorescence was measured at an excitation wavelength of 355 nm and a measurement wavelength of 460 nm.

CYP3A4 [3] = molecular target: T2, CYP3A4 (Homo sapiens, UniProt P08684)
Method: (§2) A reaction mixture was prepared by mixing the compound of the present invention with midazolam as a typical substrate for CYP3A4 (see Food and Drug Administration (FDA) Guidance for Industry Drug Interaction Studies—Study Design, Data Analysis, Implications for Dosing, and Labeling Recommendations. FDA web site [online], www.fda.gov/downloads/drugs/guidancecomplianceregulatoryinformation/guidances/ucm292362.pdf), coenzyme NADPH-generating system, human hepatic microsomes, and a phosphate buffer. The reaction mixture was incubated at 37° C. for 10 minutes.
(§3) The coenzyme NADPH-generating system solution was prepared by mixing the materials shown in Table 1: the 13 mmol/L β-NADP^+ solution, the 33 mmol/L G-6-P solution, the solution of 10 U/mL G6PDH (Y) (manufactured by Oriental Yeast Co., Ltd.), and the 33 mmol/L MgCl2 solution in a ratio of 1:1:0.4:1 (v:v:v:v).
(§4) After the incubation, the reaction was quenched by the addition of an acetonitrile solution to the reaction mixture. The amount of 1′-hydroxymidazolam produced (the metabolite produced from midazolam by CYP3A4) was measured in the quenched sample with a high-performance liquid chromatography tandem mass spectrometer (LC-MS/MS). Each IC50 value for DI (direct inhibition) was determined from the amount of the produced 1′-hydroxymidazolam and the final concentration of the compound of the present invention or the comparative compound in the reaction mixture.
(§5) MBI (mechanism based inhibition) was evaluated as follows. After the reaction mixture not containing midazolam (but containing the compound of the present invention or the comparative compound, the coenzyme NADPH-generating system, the human hepatic microsomes, and the phosphate buffer) was pre-incubated at 37° C. for 30 minutes, midazolam was added to the reaction mixture. The reaction mixture was then incubated at 37° C. for 10 minutes. Subsequently, the reaction was quenched by the addition of an acetonitrile solution to the reaction mixture. The amount of 1′-hydroxymidazolam produced was measured in the quenched sample with an LC-MS/MS. As in the case of DI, each IC50 value for MBI was determined from the amount of the produced 1′-hydroxymidazolam and the final concentration of the compound of the present invention or the comparative compound in the reaction mixture.

[4] = test system: male mice fed with low-calcium diet; test: Measurement of bone resorption inhibitory activity (decrease in serum calcium in low-calcium diet mice); type: in vivo; settings: low-calcium diet 7 days, 100 mg/kg oral, 4 hours after administration, vs control group
Method: The measurement was performed by the same method as described in JP 2000-204071 A (Patent Literature 1). Specifically, male mice (23 to 25 g weight, 8 mice per group) were fed with low-calcium diet (0.1% calcium diet) for 7 days. […] The rate (%) of decrease in serum calcium was determined by comparison with the control group.
It should be noted that the data of the rate (%) of decrease in serum calcium as to comparative compounds 1 to 15 are the values shown in JP 2000-204071 A (Patent Literature 1).

Cathepsin K [5] = molecular target: T1, Cathepsin K
Method: as §1

CYP3A4 [6] = molecular target: T2, CYP3A4; test: biochemical
Method: as §2, §3, §4, §5

[7] = read-out: CatK Inhibitory IC50, 20 μM Z-Gly-Pro-Arg-MCA, pH 6.0, 37° C., 30 minutes
[8] = read-out: CYP3A4 Inhibitory IC50 DI, DI (direct inhibition), human hepatic microsomes, midazolam, 37° C. 10 minutes
[9] = read-out: CYP3A4 Inhibitory IC50 MBI, MBI (mechanism based inhibition), 30 minutes pre-incubation with NADPH-generating system before midazolam

T2 sequence (P08684 whole entry): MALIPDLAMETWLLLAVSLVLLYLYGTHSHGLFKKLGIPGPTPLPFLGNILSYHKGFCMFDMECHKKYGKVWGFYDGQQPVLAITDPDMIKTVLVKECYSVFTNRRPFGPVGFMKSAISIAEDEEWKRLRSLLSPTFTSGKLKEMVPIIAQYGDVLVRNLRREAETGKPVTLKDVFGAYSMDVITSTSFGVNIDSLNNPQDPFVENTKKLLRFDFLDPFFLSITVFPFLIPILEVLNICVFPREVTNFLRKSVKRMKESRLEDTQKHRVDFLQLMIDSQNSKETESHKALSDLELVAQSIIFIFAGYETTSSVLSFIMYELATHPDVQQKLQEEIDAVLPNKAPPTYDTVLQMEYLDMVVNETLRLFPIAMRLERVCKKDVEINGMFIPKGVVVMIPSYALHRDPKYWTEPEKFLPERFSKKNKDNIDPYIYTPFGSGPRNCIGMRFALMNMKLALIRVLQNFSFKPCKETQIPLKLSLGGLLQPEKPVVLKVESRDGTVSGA

## [1-[[[(1S)-3-[[(3S)-hexahydro-2-oxo-1H-azepin-3-yl]amino]-1-(1-methylethyl)-2,3-dioxopropyl]amino]carbonyl]cyclohexyl]carbamic acid 1-(methoxycarbonyl)-4-piperidinyl ester [Compound 2]
[1]
  Rate of Decrease in Serum Ca: 4.71%
Cathepsin K [2]
  CYP/CatK: 122
Cathepsin K [2]; [7]
  IC50: 0.013 µM
CYP3A4 [3]; [8]
  IC50: 9.31 µM
CYP3A4 [3]; [9]
  IC50: 1.53 µM

## CC(C)[C@H](NC(=O)C1(NC(=O)OC2CCOCC2)CCCCC1)C(=O)C(=O)N[C@H]1CCCCNC1=O [Compound 1, [1-[[[(1S)-3-[[(3S)-hexahydro-2-oxo-1H-azepin-3-yl]amino]-1-(1-methylethyl)-2,3-dioxopropyl]amino]carbonyl]cyclohexyl]carbamic acid tetrahydro-2H-pyran-4-yl ester]
[4]
  Rate of Decrease in Serum Ca: 6.2%
Cathepsin K [5]
  CYP/CatK: 141739
Cathepsin K [2]
  IC50: 0.00056 µM
CYP3A4 [6]
  IC50: > 100 µM and 80 µM

## [1-[[[(1S)-3-[[(3S)-hexahydro-2-oxo-1H-azepin-3-yl]amino]-1-(1-methylethyl)-2,3-dioxopropyl]amino]carbonyl]cyclohexyl]carbamic acid tetrahydro-2H-pyran-4-yl ester [Compound 1]
[1]
  Rate of Decrease in Serum Ca: 5.39%
Cathepsin K [2]
  CYP/CatK: 207
Cathepsin K [2]; [7]
  IC50: 0.016 µM
CYP3A4 [3]; [8]
  IC50: 11.7 µM
CYP3A4 [3]; [9]
  IC50: 3.36 µM

## COC(=O)N1CCC(OC(=O)NC2(C(=O)N[C@H](C(=O)C(=O)N[C@H]3CCCCNC3=O)C(C)C)CCCCC2)CC1 [Compound 2, [1-[[[(1S)-3-[[(3S)-hexahydro-2-oxo-1H-azepin-3-yl]amino]-1-(1-methylethyl)-2,3-dioxopropyl]amino]carbonyl]cyclohexyl]carbamic acid 1-(methoxycarbonyl)-4-piperidinyl ester]
[4]
  Rate of Decrease in Serum Ca: 5.6%
Cathepsin K [5]
  CYP/CatK: 44231
Cathepsin K [2]
  IC50: 0.00052 µM
CYP3A4 [6]
  IC50: 55.6 µM and 23 µM

From patent US20160375031A1, “ALPHA-OXOACYL AMINO-CAPROLACTAM DERIVATIVE” (Seikagaku Corporation, priority 2013, published 2016)
